# Data: patent US4808409A, “Low cariogenic sweetening agents” (Board of Trustees, University of Illinois, priority 1984, dated 1989)
# Assays:
# S. mutans = assay: Cariogenicity: acid production by S. mutans from sweetener; assay type: cell-based; settings: 500 micrograms per unit volume sucrose
# Description: In a first test, the ability of microbes to utilize this sweetener source as a nutrient and convert it to acidic by-products was determined.
# human taste panel = assay: Human taste panel magnitude estimation of sweetness intensity and pleasantness
# Text: Solutions were presented to the subjects in a randomized fashion and were sampled in duplicate. After tasting, each solution was expectorated, and the mouth was washed with distilled water.
# male Swiss-Webster mice = assay: in vivo; settings: oral
# Description: (§1) Compounds were suspended in a minimum volume of 1% sodium carboxymethylcellulose, and were administered by oral intubation at the doses indicated in Table II.
# ^a Male SwissWebster mice (9 or 10 animals per dose).
# ^d Mortality = number of mice dying within 14 days/number of starting
# ^e Mortality = number of mice dying within 24 hours/number of startin
# [1] = Body weight variation in mice following oral administration; settings: for Day 14 total body weight vs control values: Day 14, in words
# Description: as §1
smiles,measurement,setting,value
"OC[C@H]1O[C@@](CO)(O[C@H]2O[C@H](CO)[C@@H](O)[C@H](O)[C@H]2O)[C@@H](O)[C@@H]1O [Sucrose, reference compound]",Rate of acid production at 500 micrograms per unit volume,S. mutans,2.8×10^-4 mEq acid/min.
same,"Sweetness intensity, sucrose 0.031 M","human taste panel; 0.031 M, scale 0-100, mean (standard error)",6.6 (2.44)
same,"Sweetness pleasantness, sucrose 0.031 M","human taste panel; 0.031 M, scale -100 to +100, mean (standard error)",-3.2 (6.44)
same,"Sweetness intensity, sucrose 0.062 M","human taste panel; 0.062 M, scale 0-100, mean (standard error)",7.8 (1.96)
same,"Sweetness pleasantness, sucrose 0.062 M","human taste panel; 0.062 M, scale -100 to +100, mean (standard error)",-1.6 (7.61)
same,"Sweetness intensity, sucrose 0.125 M","human taste panel; 0.125 M, scale 0-100, mean (standard error)",21.9 (3.30)
same,"Sweetness pleasantness, sucrose 0.125 M","human taste panel; 0.125 M, scale -100 to +100, mean (standard error)",19.2 (5.23)
same,"Sweetness intensity, sucrose 0.25 M","human taste panel; 0.25 M, scale 0-100, mean (standard error)",38.1 (4.43)
same,"Sweetness pleasantness, sucrose 0.25 M","human taste panel; 0.25 M, scale -100 to +100, mean (standard error)",31.8 (6.34)
same,"Sweetness intensity, sucrose 0.50 M","human taste panel; 0.50 M, scale 0-100, mean (standard error)",44.4 (4.63)
same,"Sweetness pleasantness, sucrose 0.50 M","human taste panel; 0.50 M, scale -100 to +100, mean (standard error)",37.8 (5.96)
same,"Sweetness intensity, sucrose 1.0 M","human taste panel; 1.0 M, scale 0-100, mean (standard error)",75.5 (4.73)
same,"Sweetness pleasantness, sucrose 1.0 M","human taste panel; 1.0 M, scale -100 to +100, mean (standard error)",2.5 (9.57)
same,"Sweetness intensity, sucrose 2.0 M","human taste panel; 2.0 M, scale 0-100, mean (standard error)",89.1 (2.93)
same,"Sweetness pleasantness, sucrose 2.0 M","human taste panel; 2.0 M, scale -100 to +100, mean (standard error)",-20.2 (12.69)
same,Sucrose concentration providing a standard panel response to sucrose intensity,human taste panel; determined graphically,0.27 M
same,Sweetness intensity at matched concentration,"human taste panel; scale 0-100, sucrose 0.27 M, natural hernandulcin 2.5 × 10^-4 M",40
"CC(=O)CCC=C(C)C [6-Methyl-5-hepten-2-one, 6-methyl-5-hepten-2-one]",Mortality at 1.0 g/kg,"male Swiss-Webster mice; 1.0 g/kg, 14 days, hernandulcin = synthetic",0/9
same,Mortality at 2.0 g/kg (14 days),"male Swiss-Webster mice; 2.0 g/kg, 14 days, hernandulcin = synthetic",0/9
same,Acute toxicity for mice,male Swiss-Webster mice; in words,essentially non-toxic
same,Estimated LD50,"male Swiss-Webster mice; male mice, hernandulcin = synthetic (two enantiomers)",> 2000 mg/kg
same,Mortality at doses up to 2 g/kg,"male Swiss-Webster mice; up to 2 g/kg body weight, in words",no mortality
same,"Body weight, Day 1 (1.0 g/kg)","[1]; 1.0 g/kg oral, Day 1, hernandulcin = synthetic",28.2 ± 0.8 g
same,"Body weight, Day 3 (1.0 g/kg)","[1]; 1.0 g/kg oral, Day 3, hernandulcin = synthetic",26.3 ± 0.8 g
same,"Body weight, Day 7 (1.0 g/kg)","[1]; 1.0 g/kg oral, Day 7, hernandulcin = synthetic",24.7 ± 0.9 g
same,"Body weight, Day 14 (1.0 g/kg)","[1]; 1.0 g/kg oral, Day 14, hernandulcin = synthetic",28.0 ± 0.8 g
same,"Body weight, pre-drug (1.0 g/kg group)","[1]; 1.0 g/kg oral, pre-drug, hernandulcin = synthetic",27.7 ± 0.8 g
same,"Body weight, Day 1 (2.0 g/kg)","[1]; 2.0 g/kg oral, Day 1, hernandulcin = synthetic",28.6 ± 0.8 g
same,"Body weight, Day 3 (2.0 g/kg)","[1]; 2.0 g/kg oral, Day 3, hernandulcin = synthetic",26.8 ± 0.9 g
same,"Body weight, Day 7 (2.0 g/kg)","[1]; 2.0 g/kg oral, Day 7, hernandulcin = synthetic",25.0 ± 0.9 g
same,"Body weight, Day 14 (2.0 g/kg)","[1]; 2.0 g/kg oral, Day 14, hernandulcin = synthetic",24.5 ± 0.8 g
same,"Body weight, pre-drug (2.0 g/kg group)","[1]; 2.0 g/kg oral, pre-drug, hernandulcin = synthetic",28.8 ± 0.8 g
same,Day 14 total body weight vs control values,[1],Significant difference from controls
same,Day 14 total body weight vs control values,[1]; listed as 6-methyl-5-hepten-2-one,significantly different from control values
